# Laboratory results from the NIST ThermoML archive (doi:10.1021/je400408w).
# ± gives the expanded uncertainty stated by the source.
# Experiment: molar heat capacity at constant pressure; xn = mol fraction of the nth substance listed
# Conditions: 100 kPa, Liquid
compound,measurement,setting,value
Cc1ccccc1Cl [2-chlorotoluene] + CN1CCCC1=O,molar heat capacity at constant pressure,"293.15 K, x2 = 0",176.43 ± 1.6 J/K/mol
same,molar heat capacity at constant pressure,"293.15 K, x2 = 0.0766",177.61 ± 1.6 J/K/mol
same,molar heat capacity at constant pressure,"293.15 K, x2 = 0.1176",178.19 ± 1.6 J/K/mol
same,molar heat capacity at constant pressure,"293.15 K, x2 = 0.1545",178.64 ± 1.7 J/K/mol
same,molar heat capacity at constant pressure,"293.15 K, x2 = 0.1932",179.13 ± 1.7 J/K/mol
same,molar heat capacity at constant pressure,"293.15 K, x2 = 0.2387",179.69 ± 1.7 J/K/mol
same,molar heat capacity at constant pressure,"293.15 K, x2 = 0.2768",180.04 ± 1.7 J/K/mol
same,molar heat capacity at constant pressure,"293.15 K, x2 = 0.3121",180.38 ± 1.7 J/K/mol
same,molar heat capacity at constant pressure,"293.15 K, x2 = 0.3543",180.68 ± 1.7 J/K/mol
same,molar heat capacity at constant pressure,"293.15 K, x2 = 0.3871",180.8 ± 1.7 J/K/mol
same,molar heat capacity at constant pressure,"293.15 K, x2 = 0.4267",180.94 ± 1.7 J/K/mol
same,molar heat capacity at constant pressure,"293.15 K, x2 = 0.4653",180.97 ± 1.7 J/K/mol
same,molar heat capacity at constant pressure,"293.15 K, x2 = 0.5065",180.95 ± 1.7 J/K/mol
same,molar heat capacity at constant pressure,"293.15 K, x2 = 0.5412",180.74 ± 1.7 J/K/mol
same,molar heat capacity at constant pressure,"293.15 K, x2 = 0.5849",180.46 ± 1.7 J/K/mol
same,molar heat capacity at constant pressure,"293.15 K, x2 = 0.6219",180.05 ± 1.7 J/K/mol
same,molar heat capacity at constant pressure,"293.15 K, x2 = 0.6618",179.44 ± 1.7 J/K/mol
same,molar heat capacity at constant pressure,"293.15 K, x2 = 0.7064",178.51 ± 1.7 J/K/mol
same,molar heat capacity at constant pressure,"293.15 K, x2 = 0.7417",177.61 ± 1.6 J/K/mol
same,molar heat capacity at constant pressure,"293.15 K, x2 = 0.7817",176.49 ± 1.6 J/K/mol
same,molar heat capacity at constant pressure,"293.15 K, x2 = 0.8213",175.04 ± 1.6 J/K/mol
same,molar heat capacity at constant pressure,"293.15 K, x2 = 0.8543",173.73 ± 1.6 J/K/mol
same,molar heat capacity at constant pressure,"293.15 K, x2 = 0.8886",172.09 ± 1.6 J/K/mol
same,molar heat capacity at constant pressure,"293.15 K, x2 = 0.9133",170.81 ± 1.6 J/K/mol
same,molar heat capacity at constant pressure,"293.15 K, x2 = 0.9476",168.91 ± 1.6 J/K/mol
same,molar heat capacity at constant pressure,"298.15 K, x2 = 0",178.21 ± 1.6 J/K/mol
same,molar heat capacity at constant pressure,"298.15 K, x2 = 0.0766",179.54 ± 1.7 J/K/mol
same,molar heat capacity at constant pressure,"298.15 K, x2 = 0.1176",180.12 ± 1.7 J/K/mol
same,molar heat capacity at constant pressure,"298.15 K, x2 = 0.1545",180.7 ± 1.7 J/K/mol
same,molar heat capacity at constant pressure,"298.15 K, x2 = 0.1932",181.09 ± 1.7 J/K/mol
same,molar heat capacity at constant pressure,"298.15 K, x2 = 0.2387",181.63 ± 1.7 J/K/mol
same,molar heat capacity at constant pressure,"298.15 K, x2 = 0.2768",181.98 ± 1.7 J/K/mol
same,molar heat capacity at constant pressure,"298.15 K, x2 = 0.3121",182.21 ± 1.7 J/K/mol
same,molar heat capacity at constant pressure,"298.15 K, x2 = 0.3543",182.53 ± 1.7 J/K/mol
same,molar heat capacity at constant pressure,"298.15 K, x2 = 0.3871",182.64 ± 1.7 J/K/mol
same,molar heat capacity at constant pressure,"298.15 K, x2 = 0.4267",182.73 ± 1.7 J/K/mol
same,molar heat capacity at constant pressure,"298.15 K, x2 = 0.4653",182.78 ± 1.7 J/K/mol
same,molar heat capacity at constant pressure,"298.15 K, x2 = 0.5065",182.72 ± 1.7 J/K/mol
same,molar heat capacity at constant pressure,"298.15 K, x2 = 0.5412",182.59 ± 1.7 J/K/mol
same,molar heat capacity at constant pressure,"298.15 K, x2 = 0.5849",182.25 ± 1.7 J/K/mol
same,molar heat capacity at constant pressure,"298.15 K, x2 = 0.6219",181.77 ± 1.7 J/K/mol
same,molar heat capacity at constant pressure,"298.15 K, x2 = 0.6618",181.22 ± 1.7 J/K/mol
same,molar heat capacity at constant pressure,"298.15 K, x2 = 0.7064",180.31 ± 1.7 J/K/mol
same,molar heat capacity at constant pressure,"298.15 K, x2 = 0.7417",179.4 ± 1.7 J/K/mol
same,molar heat capacity at constant pressure,"298.15 K, x2 = 0.7817",178.16 ± 1.6 J/K/mol
same,molar heat capacity at constant pressure,"298.15 K, x2 = 0.8213",176.75 ± 1.6 J/K/mol
same,molar heat capacity at constant pressure,"298.15 K, x2 = 0.8543",175.32 ± 1.6 J/K/mol
same,molar heat capacity at constant pressure,"298.15 K, x2 = 0.8886",173.57 ± 1.6 J/K/mol
same,molar heat capacity at constant pressure,"298.15 K, x2 = 0.9133",172.18 ± 1.6 J/K/mol
same,molar heat capacity at constant pressure,"298.15 K, x2 = 0.9476",170.02 ± 1.6 J/K/mol
same,molar heat capacity at constant pressure,"303.15 K, x2 = 0",180.01 ± 1.7 J/K/mol
same,molar heat capacity at constant pressure,"303.15 K, x2 = 0.0766",181.65 ± 1.7 J/K/mol
same,molar heat capacity at constant pressure,"303.15 K, x2 = 0.1176",182.31 ± 1.7 J/K/mol
same,molar heat capacity at constant pressure,"303.15 K, x2 = 0.1545",182.82 ± 1.7 J/K/mol
same,molar heat capacity at constant pressure,"303.15 K, x2 = 0.1932",183.22 ± 1.7 J/K/mol
same,molar heat capacity at constant pressure,"303.15 K, x2 = 0.2387",183.63 ± 1.7 J/K/mol
same,molar heat capacity at constant pressure,"303.15 K, x2 = 0.2768",183.93 ± 1.7 J/K/mol
same,molar heat capacity at constant pressure,"303.15 K, x2 = 0.3121",184.15 ± 1.7 J/K/mol
same,molar heat capacity at constant pressure,"303.15 K, x2 = 0.3543",184.34 ± 1.7 J/K/mol
same,molar heat capacity at constant pressure,"303.15 K, x2 = 0.3871",184.39 ± 1.7 J/K/mol
same,molar heat capacity at constant pressure,"303.15 K, x2 = 0.4267",184.44 ± 1.7 J/K/mol
same,molar heat capacity at constant pressure,"303.15 K, x2 = 0.4653",184.48 ± 1.7 J/K/mol
same,molar heat capacity at constant pressure,"303.15 K, x2 = 0.5065",184.39 ± 1.7 J/K/mol
same,molar heat capacity at constant pressure,"303.15 K, x2 = 0.5412",184.2 ± 1.7 J/K/mol
same,molar heat capacity at constant pressure,"303.15 K, x2 = 0.5849",183.84 ± 1.7 J/K/mol
same,molar heat capacity at constant pressure,"303.15 K, x2 = 0.6219",183.46 ± 1.7 J/K/mol
same,molar heat capacity at constant pressure,"303.15 K, x2 = 0.6618",182.89 ± 1.7 J/K/mol
same,molar heat capacity at constant pressure,"303.15 K, x2 = 0.7064",182.03 ± 1.7 J/K/mol
same,molar heat capacity at constant pressure,"303.15 K, x2 = 0.7417",181.15 ± 1.7 J/K/mol
same,molar heat capacity at constant pressure,"303.15 K, x2 = 0.7817",179.97 ± 1.7 J/K/mol
same,molar heat capacity at constant pressure,"303.15 K, x2 = 0.8213",178.4 ± 1.6 J/K/mol
same,molar heat capacity at constant pressure,"303.15 K, x2 = 0.8543",176.97 ± 1.6 J/K/mol
same,molar heat capacity at constant pressure,"303.15 K, x2 = 0.8886",175.14 ± 1.6 J/K/mol
same,molar heat capacity at constant pressure,"303.15 K, x2 = 0.9133",173.6 ± 1.6 J/K/mol
same,molar heat capacity at constant pressure,"303.15 K, x2 = 0.9476",171.22 ± 1.6 J/K/mol
